Data taken from patent publication US20110112160A1, “TABLET COMPRISING EPROSARTAN MESYLATE” (LEK PHARMACEUTICALS D.D., priority 2008, published 2011).

What was measured:
[1] = Physical stability, form of eprosartan mesylate by X-ray diffraction (XRD); format: physicochemical; conditions: at ambient temperature and humidity
Experimental: During the dry granulation processes using different excipients from the list above, physical stability of the eprosartan mesylate anhydrate was investigated. […] The final tablet form and placebo powder were analyzed by X-ray diffraction (XRD) pattern to confirm presence of anhydrous form of eprosartan mesylate.
Diffractograms were collected on X'Pert PRO MPD diffractometer using CuKα radiation. Data were recorded from 2 do 40°2θ; in steps of 0.033°2θ; with the integration times 50 s (routine testing) and from 4 do 20°2θ; in steps of 0.033°2θ; with the integration times 2000 s (to achieve lower LOD). The range for measurements with longer integration times was chosen according to the known diffractograms of eprosartan mesylate crystalline forms, which all have characteristic peaks in the carefully measured range between 4 and 20°2theta.

[2] = Hygroscopicity and interconversion of forms at high relative humidity; format: physicochemical; conditions: at RH over 60%
Description: Eprosartan mesylate is hygroscopic (at RH over 60%).

[3] = at pH 2; typically; cited from earlier work
[4] = background art; cited from earlier work
Flowability = format: physicochemical; conditions: drug per se; with sticking on punches
intestinal epithelium = conditions: background art; cited from earlier work

CCCCc1ncc(/C=C(\Cc2cccs2)C(=O)O)n1Cc1ccc(C(=O)O)cc1.CS(=O)(=O)O [Eprosartan mesylate in anhydrous form]
physical and chemical stability [1]: physically and chemically stable
interconversion of form [2]: interconverts to eprosartan mesylate mono- and later to dihydrate

CCCCc1ncc(/C=C(\Cc2cccs2)C(=O)O)n1Cc1ccc(C(=O)O)cc1.CS(=O)(=O)O [eprosartan mesylate, (E)-α-[2-n-butyl-1-[(4-carboxyphenyl)methyl]-1H-imidazol-5-yl]methylene-2-thiophenepropionic acid monomethanesulfonate]
solubility [3]: less than 0.1 mg/ml
bioavailability [4]: 13%
flowability (Flowability): below 0.15 g/sec
permeability across the intestinal epithelium (intestinal epithelium): low permeability
hygroscopicity [2]: hygroscopic
